Measured values reported in PMC8875489, “Pharmaceutical and Safety Profile Evaluation of Novel Selenocompounds with Noteworthy Anticancer Activity” (Pharmaceutics, 2022).
“Also recorded” adds a separate entry of the source. Like-named read-outs stand apart in the source and are kept apart here.

Legend:
[1] = Experimental aqueous solubility (UV spectrophotometry of saturated solutions); type: physicochemical; conditions: for solubility at 24 h: water (saturated solution)
Procedure: Experimental aqueous solubility was determined following a previously described procedure. Briefly, calibration curves were obtained by means of UV spectrometry for each compound, and their respective linear equations were obtained. Afterwards, saturated solutions of each compound were obtained, and they were diluted until the concentration fell within the calibration range, thus enabling the correct concentration interpolation. […] A detailed description of this process can be found in Supplementary Materials.
The aqueous solubility of the tested organic Se compounds was experimentally determined following a previously described procedure. The chosen assay used UV spectrophotometry to estimate the concentration of the saturated solution with known dilutions of the tested compound at room temperature (20° C) after 24 h. The concentrations of the solutions were used to obtain the interpolation of the measured UV absorbance of the saturated solution dilution from the calibration curve drawn using solutions previously prepared in methanol/water mixtures. […]
1.2. Determination of the aqueous solubility
1.2.1. Preparation of the saturated solutions of tested compounds
The saturated solutions (2 mL) of the tested Se-compounds in water were prepared at H2O boiling point in small glass vials. Later, vials were covered to avoid evaporation and all solutions were left 1 day at 20° C, after when every solution was filtered. Finally, the concentration of the Se-compounds was determined through UV spectrophotometric measurements. To estimate correctly the concentration, calibration curves with known concentrations were prepared, and the saturated solutions were diluted till reaching a point within the range of the respective calibration curve.
1.2.2. Preparation of the calibration curve stock solutions for UV spectrometry The stock solutions of 10 selenoesters (EDA-26, EDA-71, EDA-73, EDA-74, EDA-93, […]
were prepared in methanol (99% purity) at a 1 g/L concentration. Additionally, calibration solutions in the range from 0.0005 to 0.02 [g/L] were prepared for each Se-compound and their UV absorbance was determined to draw the corresponding calibration curve.
1.2.3. Sample preparation of saturated filtrates for UV spectrometry
The 100-fold diluted solutions of the saturated filtrates of the Se-compounds were prepared in the anhydrous methanol (99% purity), by addition of 70 μL of the correspond-ing methanol stock solution over anhydrous methanol till filling a 7 mL final volume. Af-terwards, the absorption of abovementioned solutions was determined. Finally, the solu-tions were diluted with 99% methanol from 1 to 160 times, in function of the compound.
The aim of this procedure was to determine the concentration of the Se-compounds […]
through the controlled dilution of the solution with unknown concentration till its UV absorbance fell within the range of the calibration solutions.
1.2.4. Solubility estimation
For each compound, the calibration curve was calculated through the UV absorbance measurements and the linear equation of the linear part of the curve was calculated. The absorbance of the dilution was then interpolated in this range, finding its concentration.
To determine the solubility, this concentration was multiplied by the dilution factor, which was specific for each derivative. This action enabled the estimation of the in vitro solubility of the tested derivatives in saturated solutions. All the solubility values were the average value obtained from the 3 independent measurements.
1.3. PAMPA test: membrane permeability evaluation.
The passive transport and the membrane absorption of 5 selected selenocompounds (EDA-58, EDA-71, EDA-119, EDA-122, EDA-A6) were evaluated in the in vitro Parallel Artificial Membrane Permeability Assay (PAMPA). The protocol of the permeability assay was similar to the ones previously described.
1.3.1. Stock solutions and sample preparation for PAMPA test […]

[2] = test system: human liver microsomes (HLMs); assay: In vitro microsomal biotransformation test with TRIS buffer and solvent controls (LC-MS/MS); type: in vitro ADME; conditions: for stability in DMSO: organic solvent, LC-MS/MS
Procedure: The assessment of the metabolites generated in the in vitro microsomal biotransformation of the selenoester EDA-71 in liver microsomes was performed following a previously described protocol with minor modifications. Only this compound was evaluated because it combined an optimal solubility to be analyzed in this procedure with very significant activity. The protocol is provided in full detail in the Supplementary Materials. Briefly, the compound was exposed to microsomes for 2 h, and the mixture was later analyzed with LC–MS/MS to detect the generated metabolites.
In the next step of the research, a biochemical in vitro method with the use of human liver microsomes (HLMs) was applied to determine the metabolic activity of the compound EDA-71. This human liver microsomal model provides all the enzymes required for the phase I metabolism reactions (hydrolysis, oxidation, and reduction). Moreover, it is also possible, in certain conditions following the addition of all necessary cofactors, to conduct metabolism II phase reactions (glutathione transferase and N-acetyltransferase enzymatic reactions). In the drug discovery process, the microsomal is a standard in vitro method for the metabolism evaluation. Additionally, this assay can predict the biotransformation kinetics and intrinsic clearance of new derivatives. Finally, these biotransformation processes can be easily monitored with LC–MS/MS.
The NADPH-regenerating system, which contained a phosphate buffer (pH = 7.4; NADP^+, glucose-6-phosphate, and glucose-6-phosphate dehydrogenase), was used. The biotransformation process was monitored with the LC–MS/MS method at the end of the procedure at 2 h after the incubation.
This experimental fact prevented the detailed analysis of metabolic stability. […] Thus, the tested compounds were dissolved in DMSO immediately before the experiment to minimize the degradation risk. […]
1.4. In vitro metabolic stability evaluation in microsomes
1.4.1. Microsomal metabolic stability protocol
For the microsomal stability assay, the selenoester EDA-71 was selected. Before the experimental procedure, the HLMs and solutions necessary for preparing the regenera-tion fraction were stored at -80° C and TRIS buffer at 4° C. The NADP+ regeneration frac-tion was prepared freshly, at the day of the experiment.
1.4.2. Preparation of the working solutions and microsomal regeneration fraction In the first step of the experiment, after selection of the compounds, the 1000 μM working solution was prepared in the TRIS buffer (0.1 M, pH 7.5) from the 10 mM stocks in DMSO. Then, the fresh regeneration fraction was prepared from the 220 μL TRIS buffer, 25 μL of the “A” solution and 5 μL of the “B” solution.
1.4.3. Human liver microsomes and solvent controls
Further, two controls have been prepared: solvent control (142 μL of TRIS buffer with 8 μL of HLMs, 50 μL of the regeneration fraction and 200 μL of the pure methanol) and tested compound control (190 μL of TRIS buffer with 10 μL of the 1 mM tested compound solution and 200 μL of methanol). The biotransformation was carried out at the precise concentration of 1 mg/mL of HLMs.
1.4.4. Biotransformation performance
In the next step 132 μL of TRIS buffer were added into a sterile eppendorf. After that, 10 μL of 1000 μM solution of tested compound in TRIS buffer were added to the above-mentioned eppendorf and then, 8 μL of HLMs. The final concentration of tested com-pound was 50 μM. After gently mixing on the vortex, reaction mixture was preincubated for 5 minutes at 37° C on the thermoblock. Then, in the further step, the reaction was ini-tiated by adding 50 μL of the NADP+ regeneration fraction and incubated at 37° C for 2 h.
After that time, to terminate the reaction, the 200 μL of pure, cold methanol (for LC-MS/MS analysis) was added to probe, which contained the tested compound with HLMs.
Moreover, the same amount of cold methanol was added into the control sample with […]

[3] = 20 °C, water, thermodynamic from solid, logSm calculated based on solubility Sm (mol/L), read-out: Experimental Aqueous Solubility logSm (converted)
[4] = thermodynamic from solid, water, room temperature (20° C), after 24 h, average of 3, read-out: Experimental Aqueous Solubility

Compound	solubility at 24 h [1, 3]	solubility at 24 h [1, 4]	stability in DMSO [2]	stability in TRIS buffer and LC-MS/MS analysis conditions ([2]; TRIS buffer pH = 7.4, control of microsomal assay)	fold less soluble than the most soluble Se compound (EDA-117) ([1]; experimental solubility)	solubility at 24 h ([1]; logSm calculated based on solubility Sm (mol/L), read-out: Experimental Aqueous Solubility logSm (converted))
COC(=O)C[Se]C(=O)c1cc(OC)c(OC)c(OC)c1 [EDA-26, methyl 2-((3,4,5-trimethoxybenzoyl)selanyl)acetate]	1100 µM	380 µg/mL				
COC(=O)C[Se]C(=O)c1cc(OC)cc(OC)c1 [EDA-58, methyl 2-((3,5-dimethoxybenzoyl)selanyl)acetate]			stable			
CC(=O)C[Se]C(=O)c1ccc(Cl)cc1 [EDA-71, Se-(2-oxopropyl) 4-chlorobenzoselenoate]	479 µM	132 µg/mL	stable	may not be stable; also recorded: unstable		
CC(C)(C)C(=O)C[Se]C(=O)c1ccc(Cl)cc1 [EDA-73, Se-(3,3-dimethyl-2-oxobutyl) 4-chlorobenzoselenoate]	~3.16 µM	~1 µg/mL			more than 1000 fold	3.16 µM
COc1cc(OC)cc(C(=O)[Se]CC(=O)C(C)(C)C)c1 [EDA-74, Se-(3,3-dimethyl-2-oxobutyl) 3,5-dimethoxybenzoselenoate]	55 µM	19 µg/mL				
O=C(C[Se]C(=O)c1ccccc1)Oc1ccccc1 [EDA-93, phenyl 2-(benzoylselanyl)acetate]	69.2 µM	22 µg/mL				
C[Se]C(=O)c1ccc(C(=O)[Se]C)cc1 [EDA-109, Se,Se-dimethyl benzene-1,4-bis(carboselenoate)]	87.1 µM	28 µg/mL				
C[Se]C(=O)c1cccc(C(=O)[Se]C)n1 [EDA-119, Se,Se-dimethyl pyridine-2,6-bis(carboselenoate)]	427 µM	137 µg/mL	stable			
C[Se]C(=O)c1cccc(C(=O)[Se]C)c1 [EDA-120, Se,Se-dimethyl benzene-1,3-bis(carboselenoate)]	81.3 µM	26 µg/mL				
C[Se]C(=O)c1ccc(C(=O)[Se]C)s1 [EDA-122, Se,Se-dimethyl thiophene-2,5-bis(carboselenoate)]	95.5 µM	31 µg/mL	stable			
O=C1[Se]C(=O)c2ccccc21 [EDA-A6, benzo[c]selenophene-1,3-dione]	3630 µM	758 µg/mL	stable			
